Read-outs that look alike come from different tables or passages of the source.

For test [1], the system named is RAN translation of (G4C2)66-No ATG-GFP in HEK293T cells. Description: Cell-based assay of RAN translation inhibition (GFP/mCherry reporter). The note with it: Homo sapiens, HEK-293T; for IC50: read-out: RANT IC50; for IC25: 24 h, read-out: RANT IC25.
In test [2] the target is Biotin-labeled RNA (target RNA). Description: BLI affinity measurement (ForteBio Octet RED384). It counts as binding. To be noted: Table G.
In test [3] the target is biotinylated r(G4C2)8 RNA and hnRNP H1-His6. Description: TR-FRET hnRNP H binding assay. A digest of the protocol: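 Biotinylated r(G4C2)8 RNA (80 nM), heat-folded at 95 °C then slowly cooled, was preincubated 15 min with compound before hnRNP H1-His6 (75 nM) was added. After 15 min, streptavidin-XL665 (40 nM) and anti-His6-Tb (0.44 ng/μL) were added and TR-FRET was read after 1 h. IC50 was obtained by curve fitting.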

[4] abbreviates: Table D, HEK293T, 24 h treatment.
The mark [5] stands for this setting: Table F, HEK293T, 24 h treatment.

`COc1ccc2c(c1)c1cc3cnccc3c(C)c1n2CCN1CCCCC1` [Compound 316, 9-methoxy-5-methyl-6-(2-(piperidin-1-yl)ethyl)-6H-pyrido[4,3-b]carbazole]: the IC50 in test [1] was 10 µM. In test [2], this molecule came in with a Kd of 3.4 µM.
On to `Cc1c2ccncc2cc2c3cc(C(=O)NC[C@H](C)O)ccc3n(C)c12` [Compound 287, N-[(2S)-2-hydroxypropyl]-5,6-dimethyl-pyrido[4,3-b]carbazole-9-carboxamide], for which the IC50 in test [1] (Table G, HEK293T) is 1.4 µM. Moreover, in test [2], binding was put at a Kd of 1.5 µM.
With `COCCN[C@@H](C)COc1ccc2c(c1)c1cc3cnccc3c(C)c1n2C` [Compound 278, (2S)-1-(5,6-dimethylpyrido[4,3-b]carbazol-9-yl)oxy-N-(2-methoxyethyl)propan-2-amine], the IC50 in test [1] (Table G, HEK293T) came out at 21 µM. The molecule also showed a Kd in test [2] of 0.083 µM.
With `Cc1c2ccncc2cc2c3cc(C(=O)N[C@H](C)C(N)=O)ccc3n(C)c12` [Compound 298, (R)—N-(1-amino-1-oxopropan-2-yl)-5,6-dimethyl-6H-pyrido[4,3-b]carbazole-9-carboxamide], in test [1] (Table G, HEK293T), the IC50 came out at 1.4 µM. Binding in test [2] was put at a Kd of 6.6 µM.
With `Cc1c2ccncc2cc2c3cc(OC[C@H](C)NC(N)=O)ccc3n(C)c12` [Compound 273, (S)-1-(1-((5,6-dimethyl-6H-pyrido[4,3-b]carbazol-9-yl)oxy)propan-2-yl)urea], in test [1] (Table G, HEK293T), the IC50 amounted to 0.39 µM. This molecule yielded a Kd in test [2] of 0.14 µM.
`Cc1c2ccnc(C(=O)NCCN(C)C)c2cc2c3cc(F)ccc3n(C)c12` [Compound 315, N-(2-(dimethylamino)ethyl)-9-fluoro-5,6-dimethyl-6H-pyrido[4,3-b]carbazole-1-carboxamide]: the IC50 in test [1] (Table G, HEK293T) was greater than 100 µM. The same molecule registered a Kd in test [2] of 11 µM.
As to `Cc1c2ccnc(C(=O)N[C@H](C)CN(C)C)c2cc2c3ccccc3n(C)c12` [Compound 292, (R)—N-(1-(dimethylamino)propan-2-yl)-5,6-dimethyl-6H-pyrido[4,3-b]carbazole-1-carboxamide], the IC50 in test [1] is 13 µM. In test [2], this molecule showed a Kd of 5.5 µM.
As for `Cc1c2ccncc2cc2c3cc(Oc4ccc(N)nc4)ccc3n(C)c12` [Compound 314, 5-((5,6-dimethyl-6H-pyrido[4,3-b]carbazol-9-yl)oxy)pyridine-2-amine], the IC50 in test [1] (Table G, HEK293T) is greater than 60 µM. Further, the Kd in test [2] is 3 µM.
As for `CCN[C@@H](C)COc1ccc2c(c1)c1cc3cnccc3c(C)c1n2C` [Compound 275, (2S)-1-(5,6-dimethylpyrido[4,3-b]carbazol-9-yl)oxy-N-ethyl-propan-2-amine], in test [1] (Table G, HEK293T), the IC50 turned out to be 20 µM. Moreover, the Kd in test [2] was 0.062 µM.
As to `Cc1c2ccncc2cc2c3ccccc3n(CCN3CCOCC3)c12` [Compound 319, 4-(2-(5-methyl-6H-pyrido[4,3-b]carbazol-6-yl)ethyl)morpholine], the half-maximal inhibitory concentration (IC50) in test [1] amounted to 12 µM. Also, the dissociation constant Kd in test [2] is 7.8 µM.
Regarding `Cc1c2ccncc2cc2c3cc(C(=O)N[C@H](C)CN(C)C)ccc3n(C)c12` [Compound 286, N-[(1R)-2-(dimethylamino)-1-methyl-ethyl]-5,6-dimethyl-pyrido[4,3-b]carbazole-9-carboxamide], the IC50 in test [1] (Table G, HEK293T) came to 10 µM. Moreover, in test [2], the Kd was determined as 2.6 µM.
With `Cc1c2ccncc2cc2c3ccccc3n(CCN3CCCCC3)c12` [Compound 318, 5-methyl-6-(2-(piperidin-1-yl)ethyl)-6H-pyrido[4,3-b]carbazole], in test [1], the IC50 stood at 16 µM. Binding in test [2] was characterised by a dissociation constant (Kd) of 6 µM.
Turning to `Cc1c2ccnc(C(=O)NCC(N)=O)c2cc2c3ccccc3n(C)c12` [Compound 290, N-(2-amino-2-oxoethyl)-5,6-dimethyl-6H-pyrido[4,3-b]carbazole-1-carboxamide], the IC50 in test [1] (Table G, HEK293T) turned out to be 8.3 µM. Besides, in test [2], the Kd was greater than 20 µM.
As to `Cc1c2ccncc2cc2c3cc(C(=O)NC[C@@H](C)N(C)C)ccc3n(C)c12` [Compound 294, N-[(2R)-2-(dimethylamino)propyl]-5,6-dimethyl-pyrido[4,3-b]carbazole-9-carboxamide], the IC50 in test [1] (Table G, HEK293T) stood at 13 µM. The Kd in test [2] came out at 0.3 µM.
`Cc1c2ccncc2cc2c3cc(C(=O)NCC(N)=O)ccc3n(C)c12` [Compound 296, N-(2-amino-2-oxoethyl)-5,6-dimethyl-6H-pyrido[4,3-b]carbazole-9-carboxamide]: in test [1] (Table G, HEK293T), the IC50 was found to be 3 µM. In test [2], this molecule registered a Kd of 5.3 µM.
In turn, `CCN(CC)CCCOc1ccc2c(c1)c1cc3cnccc3c(C)c1n2C` [Compound 10, 3-((5,6-dimethyl-6H-pyrido[4,3-b]carbazol-9-yl)oxy)-N,N-diethylpropan-1-amine] came in with a Ki in test [3] (Table D) of 7.3 µM. In test [1] (setting [4]), the IC25 was determined as 3.2 µM.
As for `COc1ccc2c(c1)c1cc3c(C4CCCO4)nccc3c(C)c1n2C` (stereo not drawn) [Example 80b, 9-methoxy-5,6-dimethyl-1-(tetrahydrofuran-2-yl)-6H-pyrido[4,3-b]carbazole], the Ki in test [3] (Table D) stood at 9.2 µM. Also, in test [1] (setting [4]), the 25% effect concentration (IC25) came out at 3.1 µM.
Consider `Cc1c2ccncc2cc2c3cc(OC[C@@H](C)N)ccc3n(C)c12` [Example 61, (R)-1-((5,6-dimethyl-6H-pyrido[4,3-b]carbazol-9-yl)oxy)propan-2-amine], for which the Ki in test [3] (Table D) was 0.9 µM. Further, the IC25 in test [1] (setting [4]) stood at 1 µM.
`Cc1c2ccncc2cc2c3cc(OCC4=NCCN4C)ccc3n(C)c12` [Example 41, 5,6-dimethyl-9-((1-methyl-4,5-dihydro-1H-imidazol-2-yl)methoxy)-6H-pyrido[4,3-b]carbazole] had a Ki in test [3] (Table D) of 0.6 µM. Moreover, the IC25 in test [1] (setting [4]) amounted to 0.67 µM.
The matching figures for `CCn1c2ccc(OCCN3CCOCC3)cc2c2cc3cnccc3c(C)c21` [Example 62, 4-[2-(6-ethyl-5-methyl-pyrido[4,3-b]carbazol-9-yl)oxyethyl]morpholine]: greater than 200 µM and greater than 5 µM.
For `Cc1c2ccncc2cc2c3c(OCC4=NCCN4)cccc3n(C)c12` [Example 56, 10-((4,5-dihydro-1H-imidazol-2-yl)methoxy)-5,6-dimethyl-6H-pyrido[4,3-b]carbazole], in test [3] (Table D), the Ki was determined as 1 µM. In addition, in test [1] (setting [4]), the IC25 is 0.67 µM.
Turning to `Cc1c2ccncc2cc2c3cc(N4CCN(C)CC4)ccc3n(C)c12` [Compound 243, 5,6-dimethyl-9-(4-methylpiperazin-1-yl)-6H-pyrido[4,3-b]carbazole], in test [3] (Table F), the Ki was 0.6 µM. For the same molecule, in test [1] (setting [5]), the IC25 stood at 1.2 µM.
The molecule `Cc1c2ccncc2cc2c3cccc(OCC4=NCCN4)c3n(C)c12` [Compound 232, 7-((4,5-dihydro-1H-imidazol-2-yl)methoxy)-5,6-dimethyl-6H-pyrido[4,3-b]carbazole] showed a Ki in test [3] (Table F) of 2 µM. Besides, the IC25 in test [1] (setting [5]) was greater than 5 µM.
Molecule `Cc1c2cnccc2cc2c3cc(OCC4=NCCN4)ccc3n(C)c12` [Example 83, 7-(4,5-dihydro-1H-imidazol-2-ylmethoxy)-10,11-dimethyl-pyrido[3,4-b]carbazole] showed a Ki in test [3] (Table D) of 2.3 µM. For the same molecule, the IC25 in test [1] (setting [4]) was found to be 1.1 µM.
Consider `Cc1c2ccncc2cc2c1sc1ccc(OCCN(C)C)cc12` [Compound 224, N,N-dimethyl-2-((5-methylbenzo[4,5]thieno[2,3-g]isoquinolin-9-yl)oxy)ethanamine], for which affinity in test [3] (Table F) was put at a Ki of 8.6 µM. Also, the IC25 in test [1] is greater than 5 µM.
In the case of `Cc1c2ccncc2cc2c3ccc(OCCN(C)C)cc3n(C)c12` [Example 51, 2-((5,6-dimethyl-6H-pyrido[4,3-b]carbazol-8-yl)oxy)-N,N-dimethylethanamine], the Ki in test [3] (Table D) came out at 6 µM. The IC25 in test [1] (setting [4]) was greater than 5 µM.
For the molecule `COc1ccc2c(c1)c1cc3c(C(=O)NCCCN(C)C)nccc3c(C)c1n2C` [Example 29, N-(3-(dimethylamino)propyl)-9-methoxy-5,6-dimethyl-6H-pyrido[4,3-b]carbazole-1-carboxamide], the Ki in test [3] (Table D) was 17 µM. For the same molecule, in test [1] (setting [4]), the concentration for an effect of 25% (IC25) amounted to 0.74 µM.
As to `CN(C)CCOc1ccc2c(c1)c1cc3cnccc3cc1n2C` [Compound 237, N,N-dimethyl-2-((6-methyl-6H-pyrido[4,3-b]carbazol-9-yl)oxy)ethanamine], affinity in test [3] (Table F) was put at a Ki of 3.6 µM. In addition, the IC25 in test [1] turned out to be 2 µM.
In test [3] (Table F), `CCn1c2ccc(OCC3=NCCN3)cc2c2cc3cnccc3cc21` [Compound 255, 9-(4,5-dihydro-1H-imidazol-2-ylmethoxy)-6-ethyl-pyrido[4,3-b]carbazole] had a Ki of 8.8 µM. The IC25 in test [1] (setting [5]) is 1.25 µM.
For `Cc1c2ccnc(C(=O)N[C@H](C)CN(C)C)c2cc2c3ccc(OCCCN4CCN(C)CC4)cc3n(C)c12` [Compound 222, (R)—N-(1-(dimethylamino)propan-2-yl)-5,6-dimethyl-8-(3-(4-methylpiperazin-1-yl)-propoxy)-6H-pyrido[4,3-b]carbazole-1-carboxamide], the affinity in test [3] (Table F) corresponds to a Ki of 6.1 µM. Further, in test [1] (setting [5]), the IC25 is greater than 5 µM.
As to `Cc1c2ccncc2cc2c3cc(OCCCN4CCOCC4)ccc3n(C)c12` [Compound 8, 4-(3-((5,6-dimethyl-6H-pyrido[4,3-b]carbazol-9-yl)oxy)propyl)morpholine], the affinity in test [3] (Table D) corresponds to a Ki of 11 µM. Besides, the IC25 in test [1] (setting [4]) stood at 0.36 µM.
In turn, `Cc1c2ccncc2cc2c3cc(OC[C@H]4CCCN4C)ccc3n(C)c12` [Example 36, (R)-5,6-dimethyl-9-((1-methylpyrrolidin-2-yl)methoxy)-6H-pyrido[4,3-b]carbazole] had a Ki in test [3] (Table D) of 3.9 µM. The IC25 in test [1] (setting [4]) was greater than 5 µM.
Molecule `Cc1c2ccncc2cc2c3cc(OCCN4CCN(C)CC4)ccc3n(C)c12` [Example 30, 5,6-dimethyl-9-(2-(4-methylpiperazin-1-yl)ethoxy)-6H-pyrido[4,3-b]carbazole] showed a Ki in test [3] (Table D) of 2.5 µM. Moreover, the IC25 in test [1] (setting [4]) stood at 2.2 µM.

Values taken from patent US20240067639A1, “SMALL MOLECULES THAT TARGET THE RNA THAT CAUSES ALS” (EXPANSION THERAPEUTICS, INC., priority 2020, published 2024).
